# PubChem BioAssay AID2060621 (Molecular Pharmacology Branch, DTP, NCI, 2025)
# Tested on: 324938-238-R-J1-PDC complex spheroids viability
# Assay: Anticancer human tumor 324938-238-R-J1-PDC patient-derived bladder carcinoma cell line growth inhibition [CLK]
# Details: for IC50: curve of first compound; for viability, T/C: stronger effect = lower value
# Source text: A high-throughput screen of multi-cell type tumor spheroids was designed to identify active combinations of […] and targeted small molecules. Complex spheroids include a stromal component modeled by human endothelial cells (HUVEC) and fibroblasts modeled by human mesenchymal stem cells (MSCs). The concentration ranges selected for each drug and investigational agent were based upon clinically achievable concentrations if the clinical Cmax of the agent was known.
# Compounds. The drugs and investigational agents: cirtuvivint (SM08502; NSC835563), CC-671 (NSC850746), vemurafenib (NSC761431), tapotoclax (NSC804041), sotorasib (NSC818433), adagrasib (NSC831453), MRTX-1133 (NSC836407), BAY2416964 (NSC825713), copanlisib (NSC816437), inavolisib (NSC800729), abemaciclib (NSC768073), osimertinib (NSC779217), entinostat (NSC756642), eltanexor (KPT-8602, NSC794443), venetoclax (NSC766270), ceralasertib (NSC777638), bortezomib (NSC756655), olaparib (NSC753686), talazoparib (NSC767125), alisertib (NSC759677), peposertib (NSC802822), gemcitabine (NSC613327), 5-fluorouracil (NSC19893), SN-38 (NSC673596), oxaliplatin (NSC266046), paclitaxel (NSC125973), and doxorubicin (NSC123127), were obtained from the National Cancer Institute (NCI) Developmental Therapeutics Program Chemical Repository. The FDA-approved anticancer drug set is available from the Developmental Therapeutics Program at https://dtp.cancer.gov/organization/dscb/obtaining/available plates.htm. […] The stock solutions were prepared in dimethyl sulfoxide (DMSO, Sigma-Aldrich, St. Louis, MO, cat. D2650), except for the platinum complexes which were prepared in saline (Quality Biological, Gaithersburg, MD, cat. 114-055-101), at 800-fold the tested concentration and stored at -70 degrees C prior to their use. All drugs and investigational agents were tested over a range starting from a high concentration at or near the clinical Cmax and decreasing in half-log increments. If the clinical Cmax for an agent had not been determined, the highest concentration tested was 10 microM.
# Cell Culture. All cells were maintained in an incubator at 37 degrees C and 5% CO2 with 95% humidity. The PDC lines were cultured according to standard operating procedures established by the NCI PDMR. Briefly, all PDCs were thawed and cultured in Matrigel-coated flasks prepared with a working solution of 1X Ham's F-12 nutrient mix, without supplementation (Invitrogen, Waltham, MA, cat. 11765054), 100 U/mL penicillin-streptomycin (Invitrogen, cat. 15140122), and 2.5% Matrigel (Corning Inc., Corning, NY, cat. 354248) for the first three passages. The 947758-054-R-J2-PDC line was cultured in 6B/Colon 1A media, which includes advanced DMEM/F-12 (Thermo Fisher Scientific, cat. 12634028), 10 mM HEPES (Thermo Fisher Scientific, cat. 15630080), 1X GlutaMAX supplement (Thermo Fisher Scientific, cat. 35050061), 0.1 mg/mL primocin (InvivoGen, cat. ant-pm-2), 10% defined fetal bovine serum, heat inactivated (HyClone Laboratories Inc., cat. SH30070.03HI), 1.25 mM N-Acetyl-L-cysteine (Sigma-Aldrich, cat. A9165), 10 mM nicotinamide (Sigma-Aldrich, cat. N0636), 1X B-27 supplement (Thermo Fisher Scientific, cat. 17504044), 1X N-2 supplement (Thermo Fisher Scientific, cat. 17502048), and 10 microM Y-27632 dihydrochloride (Tocris Bioscience, cat. 1254). The 876862-298-R-J1-PDC was cultured in 6E media, which includes all 6B/Colon 1A media components plus 50% L-WRN conditioned media (ATCC, cat. CRL-3276), 50 ng/mL recombinant human EGF recombinant protein (hEGF; Thermo Fisher Scientific, cat. PHG0311), 10 ng/mL recombinant human fibroblast growth factor 10 (hGFG-10; PeproTech, cat. 100-26), 1 ng/mL recombinant human fibroblast growth factor 2 (hFGF-2; PeproTech, cat. 100-18B), and 1 µM prostaglandin E2 (PGE2; Tocris, cat. 2296). The 227483-062-R1-J1-PDC line was cultured in Panc media, containing all 6E components except hFGF-2, with the addition of 500 nM SB-431542 (Selleckchem, cat. S1067) and 10 nM gastrin (Tocris, cat. 3006). […]
# 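Note: viability read after seven days of drug exposure.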
# 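Throughout, for viability, T/C: 100% = DMSO vehicle control wells.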
structure (smiles),measurement,setting,value
CC(C)CC(NC(=O)C(Cc1ccccc1)NC(=O)c1cnccn1)B(O)O (configuration not stated) + CN1CCN(c2cc(C(=O)Nc3cc4cc(-c5cnn(C)c5)ccc4cn3)ccn2)CC1,IC50,second compound 0.0316 µM,1290 pM
same,IC50,second compound 0.1 µM,< 949 pM
same,IC50,second compound 0.316 µM,< 949 pM
same,IC50,second compound 1 µM,< 949 pM
same,IC50,second compound 3.16 µM,< 949 pM
same,IC50,second compound 10 µM,< 949 pM
same,"viability, T/C","second compound 0.0316 µM, first compound 0.000949 µM",67%
same,"viability, T/C","second compound 0.0316 µM, first compound 0.003 µM",2.89%
same,"viability, T/C","second compound 0.0316 µM, first compound 0.00949 µM",0.33%
same,"viability, T/C","second compound 0.0316 µM, first compound 0.03 µM",0.33%
same,"viability, T/C","second compound 0.0316 µM, first compound 0.0949 µM",0.22%
same,"viability, T/C","second compound 0.0316 µM, first compound 0.3 µM",0.18%
same,"viability, T/C","second compound 0.1 µM, first compound 0.000949 µM",46.9%
same,"viability, T/C","second compound 0.1 µM, first compound 0.003 µM",2.21%
same,"viability, T/C","second compound 0.1 µM, first compound 0.00949 µM",0.38%
same,"viability, T/C","second compound 0.1 µM, first compound 0.03 µM",0.33%
same,"viability, T/C","second compound 0.1 µM, first compound 0.0949 µM",0.18%
same,"viability, T/C","second compound 0.1 µM, first compound 0.3 µM",0.32%
same,"viability, T/C","second compound 0.316 µM, first compound 0.000949 µM",11.1%
same,"viability, T/C","second compound 0.316 µM, first compound 0.003 µM",0.71%
same,"viability, T/C","second compound 0.316 µM, first compound 0.00949 µM",0.31%
same,"viability, T/C","second compound 0.316 µM, first compound 0.03 µM",0.2%
same,"viability, T/C","second compound 0.316 µM, first compound 0.0949 µM",0.15%
same,"viability, T/C","second compound 0.316 µM, first compound 0.3 µM",0.17%
same,"viability, T/C","second compound 1 µM, first compound 0.000949 µM",0.28%
same,"viability, T/C","second compound 1 µM, first compound 0.003 µM",0.27%
same,"viability, T/C","second compound 1 µM, first compound 0.00949 µM",0.18%
same,"viability, T/C","second compound 1 µM, first compound 0.03 µM",0.16%
same,"viability, T/C","second compound 1 µM, first compound 0.0949 µM",0.44%
same,"viability, T/C","second compound 1 µM, first compound 0.3 µM",0.22%
same,"viability, T/C","second compound 3.16 µM, first compound 0.000949 µM",0.23%
same,"viability, T/C","second compound 3.16 µM, first compound 0.003 µM",0.24%
same,"viability, T/C","second compound 3.16 µM, first compound 0.00949 µM",0.24%
same,"viability, T/C","second compound 3.16 µM, first compound 0.03 µM",0.1%
same,"viability, T/C","second compound 3.16 µM, first compound 0.0949 µM",0.18%
same,"viability, T/C","second compound 3.16 µM, first compound 0.3 µM",0.17%
same,"viability, T/C","second compound 10 µM, first compound 0.000949 µM",0.71%
same,"viability, T/C","second compound 10 µM, first compound 0.003 µM",0.21%
same,"viability, T/C","second compound 10 µM, first compound 0.00949 µM",0.18%
same,"viability, T/C","second compound 10 µM, first compound 0.03 µM",0.22%
same,"viability, T/C","second compound 10 µM, first compound 0.0949 µM",0.26%
same,"viability, T/C","second compound 10 µM, first compound 0.3 µM",0.25%
